Source: patent US7820711B2, “Uses of selective inhibitors of HDAC8 for treatment of T-cell proliferative disorders” (Pharmacyclics Inc., priority 2006, dated 2010)
Blank lines part the entries; values can stand above or below the molecule they belong to.

Columns and labels:
Jurkat cells [1] = experiment: ratiometric fluorescence calcium imaging, Jurkat cells; format: cell-based, human; details: for effect on compound 23-stimulated increase in intracellular Ca2+ levels: FIG. 11; for intracellular calcium mobilization / time to rise in intracellular calcium: 10 μM, FIG. 10; for dose dependence of calcium mobilization: FIGS. 12 and 13
Jurkat cells [2] = experiment: modulation of Compound 23-induced apoptosis in Jurkat cells; details: compound 23 10 μM
[3] = tested on: PLC-γ1-deficient Jurkat J.γ1 cells; experiment: ratiometric fluorescence calcium imaging, J.γ1 cells; format: cell-based, human; details: FIG. 14
Ramos cells [4] = experiment: ratiometric fluorescence calcium imaging, Ramos cells; format: cell-based; details: FIG. 15
HDAC-1 = HDAC-1 (Homo sapiens, UniProt Q13547); experiment: in vitro HDAC inhibition, HDAC-1; format: biochemical
HDAC-2 = HDAC-2 (Homo sapiens, UniProt Q92769); experiment: in vitro HDAC inhibition, HDAC-2; format: biochemical
HDAC-3 = HDAC-3 (Homo sapiens, UniProt O15379); experiment: in vitro HDAC inhibition, HDAC-3; format: biochemical
HDAC-6 = target: T1, HDAC-6 (Homo sapiens, UniProt Q9UBN7); experiment: in vitro HDAC inhibition, HDAC-6; format: biochemical
T1 sequence (Q9UBN7 1-1215): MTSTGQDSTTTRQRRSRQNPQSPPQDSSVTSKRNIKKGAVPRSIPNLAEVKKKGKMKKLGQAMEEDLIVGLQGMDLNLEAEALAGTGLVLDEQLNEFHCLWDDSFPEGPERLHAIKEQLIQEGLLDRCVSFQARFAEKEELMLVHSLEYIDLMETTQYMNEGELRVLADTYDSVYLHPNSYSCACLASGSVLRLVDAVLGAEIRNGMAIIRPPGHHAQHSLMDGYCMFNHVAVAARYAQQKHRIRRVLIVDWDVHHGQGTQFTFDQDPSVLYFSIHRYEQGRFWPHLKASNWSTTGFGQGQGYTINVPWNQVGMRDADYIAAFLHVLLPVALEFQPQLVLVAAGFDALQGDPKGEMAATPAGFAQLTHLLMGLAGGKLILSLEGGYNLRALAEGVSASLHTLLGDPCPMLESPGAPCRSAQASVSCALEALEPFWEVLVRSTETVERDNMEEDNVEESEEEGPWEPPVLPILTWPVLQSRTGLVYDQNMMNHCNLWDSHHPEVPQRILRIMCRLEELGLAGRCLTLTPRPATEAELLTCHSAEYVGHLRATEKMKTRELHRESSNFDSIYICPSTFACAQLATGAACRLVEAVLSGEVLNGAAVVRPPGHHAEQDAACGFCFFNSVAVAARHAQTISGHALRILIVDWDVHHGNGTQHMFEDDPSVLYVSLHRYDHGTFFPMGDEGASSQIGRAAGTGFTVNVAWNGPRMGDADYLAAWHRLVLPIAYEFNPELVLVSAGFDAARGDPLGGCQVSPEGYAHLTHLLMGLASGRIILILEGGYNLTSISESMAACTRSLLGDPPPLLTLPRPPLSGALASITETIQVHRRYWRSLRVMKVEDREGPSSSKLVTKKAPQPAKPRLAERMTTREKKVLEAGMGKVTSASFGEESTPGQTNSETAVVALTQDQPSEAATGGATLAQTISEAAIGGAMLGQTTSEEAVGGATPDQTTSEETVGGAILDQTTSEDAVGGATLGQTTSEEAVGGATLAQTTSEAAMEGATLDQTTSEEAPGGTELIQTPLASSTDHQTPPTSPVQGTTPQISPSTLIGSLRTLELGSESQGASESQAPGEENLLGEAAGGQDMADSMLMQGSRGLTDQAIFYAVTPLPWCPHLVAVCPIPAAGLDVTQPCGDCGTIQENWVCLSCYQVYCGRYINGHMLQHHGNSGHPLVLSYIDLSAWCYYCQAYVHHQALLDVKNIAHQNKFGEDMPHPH

HDAC-8 = target: T2, HDAC-8 (Homo sapiens, UniProt Q9BY41); experiment: in vitro HDAC inhibition, HDAC-8; format: biochemical
T2 sequence (Q9BY41 1-377): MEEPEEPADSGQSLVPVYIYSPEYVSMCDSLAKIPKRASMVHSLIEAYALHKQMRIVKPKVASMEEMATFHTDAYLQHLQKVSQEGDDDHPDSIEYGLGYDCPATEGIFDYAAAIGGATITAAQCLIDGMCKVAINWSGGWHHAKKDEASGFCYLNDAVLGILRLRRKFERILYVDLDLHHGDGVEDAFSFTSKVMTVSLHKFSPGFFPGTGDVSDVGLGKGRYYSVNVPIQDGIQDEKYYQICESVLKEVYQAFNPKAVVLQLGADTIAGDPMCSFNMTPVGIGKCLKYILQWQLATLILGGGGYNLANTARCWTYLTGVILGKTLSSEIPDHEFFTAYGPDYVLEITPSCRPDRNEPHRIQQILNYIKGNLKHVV

HDAC-10 = target: T3, HDAC-10 (Homo sapiens, UniProt Q969S8); experiment: in vitro HDAC inhibition, HDAC-10; format: biochemical
T3 sequence (Q969S8 1-669): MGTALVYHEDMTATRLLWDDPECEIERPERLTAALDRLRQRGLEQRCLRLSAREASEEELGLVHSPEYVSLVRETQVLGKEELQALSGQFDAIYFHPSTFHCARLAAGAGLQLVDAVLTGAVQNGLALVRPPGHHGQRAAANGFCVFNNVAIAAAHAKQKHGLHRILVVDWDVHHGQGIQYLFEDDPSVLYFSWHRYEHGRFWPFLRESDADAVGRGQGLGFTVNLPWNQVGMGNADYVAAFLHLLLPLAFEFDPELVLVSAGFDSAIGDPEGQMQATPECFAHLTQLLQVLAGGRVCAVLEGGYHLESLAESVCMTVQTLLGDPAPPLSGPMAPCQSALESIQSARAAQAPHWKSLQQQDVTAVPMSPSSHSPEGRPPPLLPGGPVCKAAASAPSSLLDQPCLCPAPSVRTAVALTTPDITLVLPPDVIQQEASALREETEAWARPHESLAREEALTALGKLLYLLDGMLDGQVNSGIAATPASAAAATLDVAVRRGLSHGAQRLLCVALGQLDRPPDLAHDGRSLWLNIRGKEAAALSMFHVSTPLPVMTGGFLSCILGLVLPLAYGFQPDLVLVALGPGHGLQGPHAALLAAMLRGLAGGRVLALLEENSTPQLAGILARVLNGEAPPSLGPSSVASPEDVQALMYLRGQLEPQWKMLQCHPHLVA

Ramos cells [5] = experiment: apoptosis in Ramos cells; format: cell-based
[6] = tested on: J.g1 (Phospholipase C-g1 deficient Jurkat); experiment: Apoptosis in J.g1 cells
[7] = tested on: P116 (ZAP-70 deficient Jurkat); experiment: Apoptosis in P116 cells
Jurkat WT = experiment: Apoptosis in Jurkat WT cells
[8] = tested on: J.RT3-T.5 (TCR-b chain deficient Jurkat); experiment: Apoptosis in J.RT3-T.5 cells
[9] = tested on: PLC-deficient J.γ1 Jurkat cells; experiment: cytochrome C translocation from mitochondria to cytosol, J.γ1 Jurkat; details: HDAC inhibitors 12 or 24 hours, FIG. 9
wild type Jurkat cells = experiment: cytochrome C translocation from mitochondria to cytosol, wild type Jurkat; details: HDAC inhibitors 12 or 24 hours, FIG. 9

Sequence of HDAC-2 (Q92769 whole entry): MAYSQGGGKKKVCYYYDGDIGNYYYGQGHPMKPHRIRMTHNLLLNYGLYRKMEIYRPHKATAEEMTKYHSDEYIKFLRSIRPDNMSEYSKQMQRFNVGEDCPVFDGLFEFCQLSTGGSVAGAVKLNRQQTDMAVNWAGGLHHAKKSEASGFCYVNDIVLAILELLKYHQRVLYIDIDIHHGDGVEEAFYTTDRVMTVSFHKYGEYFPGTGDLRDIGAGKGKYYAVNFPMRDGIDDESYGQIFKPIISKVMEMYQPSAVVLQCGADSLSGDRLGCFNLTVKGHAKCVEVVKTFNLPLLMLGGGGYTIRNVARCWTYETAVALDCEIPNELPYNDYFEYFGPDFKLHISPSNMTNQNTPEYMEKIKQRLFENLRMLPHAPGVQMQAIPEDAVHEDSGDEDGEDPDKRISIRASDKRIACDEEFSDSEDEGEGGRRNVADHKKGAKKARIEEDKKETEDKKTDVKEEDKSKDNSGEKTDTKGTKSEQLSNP
Sequence of HDAC-3 (O15379 whole entry): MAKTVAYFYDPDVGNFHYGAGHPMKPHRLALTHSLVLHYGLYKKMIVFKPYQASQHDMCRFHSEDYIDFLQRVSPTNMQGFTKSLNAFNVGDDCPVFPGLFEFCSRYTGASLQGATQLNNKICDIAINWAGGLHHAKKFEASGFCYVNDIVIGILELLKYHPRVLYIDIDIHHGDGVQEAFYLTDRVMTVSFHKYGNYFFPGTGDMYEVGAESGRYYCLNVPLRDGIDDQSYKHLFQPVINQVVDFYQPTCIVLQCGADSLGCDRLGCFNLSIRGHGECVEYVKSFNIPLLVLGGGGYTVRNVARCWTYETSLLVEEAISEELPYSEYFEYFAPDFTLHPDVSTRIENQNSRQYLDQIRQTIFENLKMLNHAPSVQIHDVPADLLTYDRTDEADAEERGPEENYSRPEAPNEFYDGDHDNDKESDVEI
Sequence of HDAC-3 (Q9Y618 395-489 partner limits assumed): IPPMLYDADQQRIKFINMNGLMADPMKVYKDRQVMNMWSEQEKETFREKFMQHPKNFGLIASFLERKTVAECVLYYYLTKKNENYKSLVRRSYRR
Sequence of HDAC-1 (Q13547 whole entry): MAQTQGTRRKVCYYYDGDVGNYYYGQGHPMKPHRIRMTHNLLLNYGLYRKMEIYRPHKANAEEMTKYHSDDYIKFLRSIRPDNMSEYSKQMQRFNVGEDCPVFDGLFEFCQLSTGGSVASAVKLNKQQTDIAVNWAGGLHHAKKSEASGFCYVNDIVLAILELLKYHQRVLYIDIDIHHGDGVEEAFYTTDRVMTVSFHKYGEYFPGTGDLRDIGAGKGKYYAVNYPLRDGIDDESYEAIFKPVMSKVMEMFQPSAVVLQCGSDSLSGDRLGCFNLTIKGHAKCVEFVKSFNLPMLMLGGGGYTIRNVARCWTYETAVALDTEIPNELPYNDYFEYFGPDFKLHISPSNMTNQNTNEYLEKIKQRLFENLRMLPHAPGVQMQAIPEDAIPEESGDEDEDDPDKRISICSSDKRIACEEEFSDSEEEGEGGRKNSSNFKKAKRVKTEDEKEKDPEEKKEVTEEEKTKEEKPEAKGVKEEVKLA

Molecule: COc1ccc2c(c1)CC[C@@H]1[C@@H]2CC[C@]2(C)[C@@H](NCCCCCCN3C(=O)CCC3=O)CC[C@@H]12 [Compound U-73343]
effect on compound 23-stimulated increase in intracellular Ca2+ levels (Jurkat cells [1]): not
effect on Compound 23-induced apoptosis (Jurkat cells [2]; FIG. 7): failed to block

Molecule: CN(C)Cc1c(C(=O)NCCOc2ccc(C(=O)NO)cc2)oc2ccccc12 [CRA-024781]
intracellular calcium mobilization (Jurkat cells [1]): sustained rise in intracellular calcium
time to rise in intracellular calcium (Jurkat cells [1]): approximately 1 minute
dose dependence of calcium mobilization (Jurkat cells [1]): dose dependent
effect on intracellular Ca2+ [3]: completely abolished
intracellular calcium levels (Ramos cells [4]): robust increase

IC50 (HDAC-1): 2600 nM
IC50 (HDAC-2): 23000 nM
IC50 (HDAC-3): 1500 nM
IC50 (HDAC-6): 360 nM
IC50 (HDAC-8): 24 nM
HDAC8 IC50 fold lower than the next lowest HDAC target IC50 (HDAC-8; vs HDACs 1, 2, 3, 6, 10): ~15 fold
IC50 (HDAC-10): 5300 nM
Molecule: Cn1cc(Cc2ccc(F)cc2)c2cc(C(=O)NO)ccc21 [Compound 33, 1-methyl-3-(4-fluoro-phenylmethyl)-1H-indole-5-carboxylic acid hydroxyamide]

Molecule: COc1ccc2c(c1)CC[C@@H]1[C@@H]2CC[C@]2(C)[C@@H](NCCCCCCN3C(=O)C=CC3=O)CC[C@@H]12 [Compound U-73122]
effect on compound 23-stimulated increase in intracellular Ca2+ levels (Jurkat cells [1]): strongly inhibited
effect on Compound 23-induced apoptosis (Jurkat cells [2]; FIG. 7): inhibited Compound 23-induced apoptosis in a dose-dependent manner

Molecule: C/C=C(/C)C(=O)O[C@H]1C(C)=C2[C@H]([C@@H]1OC(=O)CCCCCCC)[C@@](C)(OC(C)=O)C[C@H](OC(=O)CCC)[C@@]1(O)[C@H]2OC(=O)[C@@]1(C)O [thapsigargin]
effect on Compound 23-induced apoptosis (Jurkat cells [2]; thapsigargin 0.2 μM, FIG. 8(A)): enhanced apoptosis

Molecule: CC(=O)OCOC(=O)CN(CC(=O)OCOC(C)=O)c1ccccc1OCCOc1ccccc1N(CC(=O)OCOC(C)=O)CC(=O)OCOC(C)=O [BAPTA-AM]
effect on Compound 23-induced apoptosis (Jurkat cells [2]; BAPTA-AM 0.5 μM, FIG. 8(B)): diminished apoptosis

Molecule: COc1ccc(Cn2ccc3ccc(C(=O)NO)cc32)cc1 [Compound 23, 1-(4-methoxy-phenylmethyl)-1H-indole-6-carboxylic acid hydroxyamide]
intracellular calcium mobilization (Jurkat cells [1]): sustained rise in intracellular calcium
time to rise in intracellular calcium (Jurkat cells [1]): approximately 1 minute
dose dependence of calcium mobilization (Jurkat cells [1]): dose dependent
effect on intracellular Ca2+ [3]: completely abolished
intracellular calcium levels (Ramos cells [4]): did not alter resting calcium levels
induction of apoptosis (Ramos cells [5]): failure to induce apoptosis
Apoptosis at 5 μM [6]: 12%
Apoptosis at 5 μM [7]: 82%
Apoptosis at 5 μM (Jurkat WT): 43%
Apoptosis at 5 μM [8]: 67%
cytochrome C translocation from mitochondria to cytosol [9]: failed to alter the localization
cytochrome C translocation from mitochondria to cytosol (wild type Jurkat cells): induced translocation

B1: FasL: a pro-apoptotic protein (protein, UniProt P48023 130-281, looked up)
Tumor necrosis factor ligand …: QIGHPSPPPEKKELRKVAHLTGKSNSRSMPLEWEDTYGIVLLSGVKYKKGGLVINETGLYFVYSKVYFRGQSCNNLPLSHKVYMRNSKYPQDLVMMEGKMMSYCTTGQMWARSSYLGAVFNLTSADHLYVNVSELSLVNFEESQTFFGLYKL
cytochrome C translocation from mitochondria to cytosol [9]: effectively induced translocation
cytochrome C translocation from mitochondria to cytosol (wild type Jurkat cells): effectively induced translocation
